Measured values reported in PMC10226132, “First-in-Class Selective Inhibitors of the Lysine Acetyltransferase KAT8” (Journal of Medicinal Chemistry, 2023).

Tests used:
[1] = target: T1, KAT8 (Homo sapiens, UniProt Q9H7Z6); assay: Preincubation and jump-dilution analysis of KAT8 mode of inhibition; type: biochemical; details: for time-dependent inhibition of KAT8 (preincubation assay): 12.5 μM inhibitor, preincubation 5-120 min; for KAT8 activity regained after inhibitor dilution (jump-dilution): 10× IC50 (121 μM for 19, 81 μM for 34), 100-fold dilution, any timepoint 10-240 min
T1 construct: using the previously purified KAT8 (173–458, 5 nM); 6xHis tag with TEV protease cleavage site (N, cleaved yes); made in house; host or cells: E. coli BL21(DE3)
T1 sequence (Q9H7Z6 173-458): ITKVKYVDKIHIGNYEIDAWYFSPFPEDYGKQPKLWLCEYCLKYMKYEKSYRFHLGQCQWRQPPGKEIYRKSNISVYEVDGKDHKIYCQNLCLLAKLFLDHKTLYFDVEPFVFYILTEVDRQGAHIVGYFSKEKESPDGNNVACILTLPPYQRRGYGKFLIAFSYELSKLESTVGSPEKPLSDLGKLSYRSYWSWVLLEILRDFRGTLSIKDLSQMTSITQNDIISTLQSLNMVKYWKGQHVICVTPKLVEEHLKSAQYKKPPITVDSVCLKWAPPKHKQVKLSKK
Description: The preincubation assay was performed by incubating KAT8 with the relevant inhibitor (12.5 μM final concentration) for 5, 10, 20, 30, 60, and 120 min at rt. The activity of KAT8 was then measured as described in the “Radioactive KAT8 inhibition assay” paragraph of the Experimental Section. […] Fifty microliters were then incubated at rt for 10, 20, 30, 60, 120, and 240 min, and the mixtures were then processed as described in the “Radioactive KAT8 inhibition assay” paragraph of the Experimental section. Radioactive signal was normalized to the DMSO control reaction incubated for 240 min, converted in percent of KAT8 activity after 240 min, and plotted against each measurement time point. Experiments were performed in biological triplicates.

[2] = target: T2, KAT8 (Homo sapiens, UniProt Q9H7Z6); assay: CETSA target engagement in HT29 cells; type: cell-based; details: 100 μM, 4 h, 59 °C
T2 construct: endogenous in cells; host or cells: HT29
Description: Target engagement in cells was determined by CETSA.[65],[66] For CETSA experiments with cells treated in culture, ∼1 × 10^6 HT29 were treated with DMSO (0.5% v/v final) or 100 μM compound for 4 h at 37 °C and 5% CO2 in a humidified incubator. The cells were harvested, washed twice with PBS, and resuspended in PBS with protease inhibitors. The cell suspensions were then distributed into PCR tubes, heated at the indicated temperature in a SimpliAmp Thermal Cycler (Applied Biosystems) for 3 min, and then cooled for another 3 min at rt. The cell suspensions were then lysed by freeze-thawing three times with 3 min incubations in an ethanol/dry ice bath and water bath at 37 °C. The lysates were then centrifuged at 20,000×g for 30 min at 4 °C to remove cellular debris and protein aggregates, and lysates were prepared for WB analysis. Proteins were separated by SDS-PAGE on 13.5% gels and were transferred to nitrocellulose membranes (Biorad Laboratories). Membranes were blocked for 1 h and incubated overnight with the appropriate primary antibody at 4 °C. After incubation, membranes were washed and incubated with the appropriate secondary antibody (Biorad Laboratories) for 1 h at room temperature. […] The band signals were quantified using ImageJ and values normalized to the 37 °C DMSO control.
T2 sequence (Q9H7Z6 whole entry): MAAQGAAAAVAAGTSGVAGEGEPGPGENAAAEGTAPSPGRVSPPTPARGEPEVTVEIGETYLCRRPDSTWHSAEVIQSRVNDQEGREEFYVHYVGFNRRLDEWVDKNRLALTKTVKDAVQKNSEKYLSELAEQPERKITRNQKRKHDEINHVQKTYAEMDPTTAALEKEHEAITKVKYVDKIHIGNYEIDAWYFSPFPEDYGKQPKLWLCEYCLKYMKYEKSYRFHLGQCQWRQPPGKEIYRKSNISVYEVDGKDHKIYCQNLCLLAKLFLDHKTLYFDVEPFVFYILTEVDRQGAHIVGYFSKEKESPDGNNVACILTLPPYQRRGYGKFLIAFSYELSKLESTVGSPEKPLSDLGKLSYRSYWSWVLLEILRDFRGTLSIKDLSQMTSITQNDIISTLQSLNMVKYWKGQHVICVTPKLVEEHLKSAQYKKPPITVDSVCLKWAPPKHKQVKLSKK

[3] = system: HeLa cells; assay: MTT cell proliferation assay, HeLa; type: cell-based, human; details: 10, 25, 50, 100 μM, 72 h
Source text: (§1) Human commercially available AML U937, breast cancer MCF7, lung adenocarcinoma NCI-H460, H1299 and A-549, glioblastoma U251, B lymphocyte AHH1 cell lines were maintained in compete 10% foetal bovine serum (FBS,) RPMI 1640 (Euroclone, Milan, IT) medium. Human commercially available colon cancer HCT116 and HT29 lines and cervix adenocarcinoma HeLa cells were maintained in compete 10% FBS Dulbecco’s Modified Eagle Medium (DMEM) high glucose medium (Euroclone). L-Glutamine, FBS, and penicillin streptomycin mixture added to medium were obtained from Euroclone. All cell lines were cultured at 37 °C in a humidified atmosphere of 5% CO2:95% air and were tested for mycoplasma contamination routinely by RT-PCR.
(§2) For analysis of cell proliferation, cells were plated in sextuplicate on 96-well plates in complete media. After 24 h, cells were exposed to different drugs for 72 h. The inhibitory effect of different drugs was assessed by MTT (Sigma, St. Louis, MO, USA) colorimetric assays as previously reported.[67] Aqueous DMSO (0.5% v/v) was used as a control (untreated). The results are reported as “viability of drug-treated cells/viability of untreated cells” × 100 and represent the average ±SD of three independent experiments. IC50 values were using fitted by nonlinear regression using GraphPad Prism 8.0.

[4] = system: MCF7 cells; assay: MTT cell proliferation assay, MCF7; type: cell-based, human; details: 10, 25, 50, 100 μM, 72 h
Source text: as §1, §2

[5] = system: normal human lung fibroblasts (NHLF); assay: Proliferation of normal human lung fibroblasts (NHLF); type: cell-based; details: 25, 50, 100, 200 μM, 72 h
Description: as §2

[6] = system: HT29 cells; assay: Cell cycle analysis by propidium iodide staining, HT29; type: cell-based, human; details: 72 h
Description: For the analysis of the progression of cells through cell cycle phases and sub-G1 peak identification, 24 h after plating, cells were treated with the different compounds. After 72 h, both floating and adherent cells were collected and fixed with cold 70% ethanol. At least 24 h after fixation, cells were incubated with 0.025 mg/mL Propidium Iodide for 15 min at room temperature and analyzed. For Annexin V analysis, 24 h after plating, cells were treated with 50 and 100 μM of the compounds. In the case of chloroquine experiments, 10 μM chloroquine (Sigma-Aldrich, A9165) was added 30 min before compounds. 72 h after treatment, both floating and adherent cells were collected and stained with an Annexin V-FITC apoptosis detection kit (ENZO #ALX-850-020-KI). Samples were incubated 15 min in the dark at rt, and 10,000 events were then analyzed.

SMILES	time-dependent inhibition of KAT8 (preincubation assay) [1]	KAT8 activity regained after inhibitor dilution (jump-dilution) [1]	target engagement (stabilization of KAT8 against thermal-induced aggregation) [2]	antiproliferative activity in HeLa [3]	antiproliferative activity in MCF7 [4]	effect on proliferation of NHLF [5]	change in the different stages of cell cycle, HT29 [6]
CC1=NN(c2ccc(C(=O)O)cc2)C(=O)/C1=C\c1ccc[nH]1 [Compound 19, (Z)-4-(4-((1H-Pyrrol-2-yl)methylene)-3-methyl-5-oxo-4,5-dihydro-1H-pyrazol-1-yl)benzoic Acid]	did not observe time-dependent inhibition	~90%	stabilize KAT8 against thermal-induced aggregation	a certain degree of antiproliferative activity	neither inhibitor had any effect	did not significantly affect the proliferation	no significative change
O=C(O)c1ccc(N2N=C(c3ccccc3)/C(=C/c3ccc[nH]3)C2=O)cc1 [Compound 34, (Z)-4-(4-((1H-Pyrrol-2-yl)methylene)-5-oxo-3-phenyl-4,5-dihydro-1H-pyrazol-1-yl)benzoic Acid]	did not observe time-dependent inhibition	~90%	stabilize KAT8 against thermal-induced aggregation	a certain degree of antiproliferative activity	neither inhibitor had any effect	did not significantly affect the proliferation	no significative change
